How the values were obtained:
Rattus norvegicus [1] = organism: Rattus norvegicus; assay: DrugMatrix - Regimen: Daily Repeat; format: toxicity, organism-based, Sprague-Dawley; parameters: regimen Daily Repeat, gender Male, age 6-8 weeks; conditions: in vivo, po, 2 mg/kg, route oral GAVAGE, dose level High, vehicle 100 % WATER
Rattus norvegicus [2] = organism: Rattus norvegicus; format: toxicity, organism-based, Sprague-Dawley; conditions: in vivo, po, 2 mg/kg, 24 h, route oral GAVAGE, dose level High, time 1 day, vehicle 100 % WATER
Description: DrugMatrix - Regimen: Single

[3] = […], tissue Plasma, time 14 day

## O=[Se]([O-])[O-].[Na+].[Na+] [SODIUM SELENITE]
Rattus norvegicus [1]; 120 h, tissue Plasma, time 5 day
  URIC ACID: 0.67 mg/dL
Rattus norvegicus [1]; […], tissue Blood, time 14 day
  ABSOLUTE BASOPHIL: 0 CELLS/uL
  ABSOLUTE EOSINOPHIL: 217 CELLS/uL
  ABSOLUTE LYMPHOCYTE: 17297 CELLS/uL
  ABSOLUTE MONOCYTE: 361.6 CELLS/uL
  ABSOLUTE SEGMENTED NEUTROPHIL: 2204.4 CELLS/uL
  BASOPHIL: 0%
  EOSINOPHIL: 1.2%
  ERYTHROCYTE COUNT: 6.02 x10E6/uL
  HEMATOCRIT: 35.24%
  HEMOGLOBIN: 13.22 G/DL
  LEUKOCYTE COUNT: 20.08 x10E3/uL
  LYMPHOCYTE: 85.8%
  MEAN CORPUSCULAR HEMOGLOBIN: 21.98 pg
  MEAN CORPUSCULAR HEMOGLOBIN CONCENTRATION: 37.54 G/DL
  MEAN CORPUSCULAR VOLUME: 58.52 fL
  MONOCYTE: 1.8%
  NEUTROPHIL: 11.2%
  NUCLEATED RED BLOOD CELLS: 0 /100WBC
  PLATELET COUNT: 1010.8 x10E3/uL
Rattus norvegicus [1]; [3]
  ALANINE AMINOTRANSFERASE: 60.2 u/L
  ALBUMIN: 4.26 G/DL
  ALKALINE PHOSPHATASE: 330.2 u/L
  ASPARTATE AMINOTRANSFERASE: 119.4 u/L
  BLOOD UREA NITROGEN: 14 mg/dL
  CARBON DIOXIDE: 22.8 mmol/L
  CHLORIDE: 104.2 MEQ/L
  CHOLESTEROL: 62.8 mg/dL
  CREATININE: 0.21 mg/dL
  GLUCOSE: 199.6 mg/dL
  LACTATE DEHYDROGENASE: 281.2 u/L
  LIPASE: 8 u/L
  PHOSPHORUS: 13.28 mg/dL
  POTASSIUM: 5.95 MEQ/L
  SODIUM: 148.62 MEQ/L
  TOTAL BILIRUBIN: 0.16 mg/dL
  TOTAL PROTEIN: 6.16 G/DL
  URIC ACID: 2.08 mg/dL
Rattus norvegicus [2]; tissue Blood
  ABSOLUTE EOSINOPHIL: 75.33 CELLS/uL
  ABSOLUTE LYMPHOCYTE: 14511 CELLS/uL
  ABSOLUTE MONOCYTE: 680 CELLS/uL
  ABSOLUTE SEGMENTED NEUTROPHIL: 1733.67 CELLS/uL
  BASOPHIL: 0%
  EOSINOPHIL: 0.67%
  ERYTHROCYTE COUNT: 5.44 x10E6/uL
  HEMATOCRIT: 34.57%
  HEMOGLOBIN: 12.77 G/DL
  LEUKOCYTE COUNT: 17 x10E3/uL
  LYMPHOCYTE: 85%
  MEAN CORPUSCULAR HEMOGLOBIN: 23.53 pg
  MEAN CORPUSCULAR HEMOGLOBIN CONCENTRATION: 36.97 G/DL
  MEAN CORPUSCULAR VOLUME: 63.6 fL
  MONOCYTE: 4%
  NEUTROPHIL: 10.33%
  NUCLEATED RED BLOOD CELLS: 0 /100WBC
  PLATELET COUNT: 978.67 x10E3/uL
Rattus norvegicus [2]; tissue Plasma
  ALANINE AMINOTRANSFERASE: 57.67 u/L
  ALBUMIN: 4.3 G/DL
  ALKALINE PHOSPHATASE: 357.67 u/L
  ASPARTATE AMINOTRANSFERASE: 80.67 u/L
  BLOOD UREA NITROGEN: 12.33 mg/dL
  CARBON DIOXIDE: 27.67 mmol/L
  CHLORIDE: 103 MEQ/L
  CHOLESTEROL: 82.67 mg/dL
  CREATININE: 0.15 mg/dL
  GLUCOSE: 177 mg/dL
  LACTATE DEHYDROGENASE: 119 u/L
  LIPASE: 7.67 u/L
  PHOSPHORUS: 13.23 mg/dL
  POTASSIUM: 6.75 MEQ/L
  SODIUM: 146.8 MEQ/L
  TOTAL BILIRUBIN: 0.2 mg/dL
  TOTAL PROTEIN: 5.73 G/DL
  URIC ACID: 2.07 mg/dL

Source: ChEMBL document CHEMBL3885881, “DrugMatrix”
